These results are taken from a melting point compilation (Tetko et al.; mined from patent text by program, amines drawn as free bases though some values may be those of a salt).

Residues, ends and D or L forms follow the SMILES beside them. *: point of attachment. Boc = CC(C)(C)OC(=O)*; OBn = c1ccc(CO*)cc1; Bn = c1ccc(C*)cc1 Bounds are passed on as bounds.

In turn, `Nc1cc(=O)n(Cc2ccccc2[N+](=O)[O-])[nH]1` returned a melting point of 190 °C.
Then `CNC(=O)Oc1cccc(C2CCCN2Cc2ccncc2)c1` (stereo not drawn), with 92 to 105 °C; and `COC(=O)C(O)C(CC(C)C)NCc1ccccc1` (stereo not drawn), with 89 to 90 °C; and `CN(C)CCNC(=O)Cc1ccc(NC(=O)CCc2nc(-c3ccc4ccccc4c3)no2)cc1`, with 173 to 174 °C.
To `CN(CCCCC(=O)N1CCN(c2nc3cc(C(=O)Nc4nc(C(C)(C)C)cs4)ccn3c(=O)c2/C=C/C(=O)O)CC1)CC(=O)O` belongs 169 to 172 °C; to `O=C(Nc1nc2ccc(Sc3cnc4ccc(-c5cccc(F)c5)cn34)cc2s1)C1CC1`, > 260 °C; to `CN(CCOc1ccc(CC2SC(=O)NC2=O)cc1)c1ncccn1` (stereo not drawn), 150 to 151 °C.
For the molecule `CCC(O)(CC)CC(=NO)C1(c2ccc(Cl)cc2)CCC1`, the melting point is 113 to 115 °C.
To `CN(C)CCC1=Cc2ccccc2N(C)c2ccc(Cl)cc21` belongs 82 °C; to `NC(=O)c1sc(Nc2ccccc2)c2c1CCc1cn[nH]c1-2`, 233 to 234 °C; to `Cc1cc2c(=O)c(C(=O)O)cn(-c3cc(N)c(F)cc3F)c2cc1F`, > 280 °C.
In the case of `CC(=O)Nc1cc(C)c([N+](=O)[O-])cn1`, the melting point was in the range of 153 to 154 °C.
`O=C(O)c1ccc(NCCOc2ccc3ccccc3c2)cc1` came in with a melting point of 208 to 211 °C.
To `CC(C)(Cc1ccc(Br)cc1)C(C(=O)O)C(=O)O` belongs 169 to 173 °C.
`CC(C)(OCc1cc2nc(Cl)ccc2n1S(=O)(=O)c1ccc2c(c1)CCO2)C(=O)O`: the melting point amounted to 169 °C.
Then `CC#Cc1cc(C)c(C2=C(O)C3(CCN(OC)CC3)N(C)C2=O)c(C)c1`, with > 240 °C; and `COC(=O)COCc1c(OC)ccc(OC)c1C=O`, with 177 to 179 °C; and `COc1ccc(S(=O)(=O)N2Cc3ccccc3N(C(=O)c3cccc(C(F)(F)F)c3)CC2C(=O)NO)cc1` (stereo not drawn), with 128 to 130 °C.
To `Cc1ccc2c3c(ccc2n1)OCC(CN1CCC(c2nc4ccccc4o2)CC1)O3` (stereo not drawn) belongs 128 to 130 °C.
To `CCn1c(=O)n(O)c(=O)c2cc(F)c(F)cc21` belongs 172 to 174 °C; to `CC(C)(C)Sc1cccc(-c2nc(=O)c3ccccc3s2)n1`, 153 to 154 °C.
In the case of `COc1ccc(CN(C)CCCc2ccc(NC(=O)c3cccc4c(=O)c5cccc(OC)c5[nH]c34)c(C)c2)cc1OC`, the melting point turned out to be 154 °C.
Then `Cc1cc(C2CN(C(=O)Nc3ccc(OC(F)(F)F)cc3)N=C2c2ccccc2)on1` (stereo not drawn), with 195 to 197 °C; and `CN(C1CCN(CCC(F)(F)F)CC1)S(=O)(=O)c1ccc(Nc2nccc(Nc3ccc(F)cc3)n2)cc1`, with 195 to 196 °C; and `CCOC(=O)C1CCCCCCCC(=O)N1` (stereo not drawn), with 101 to 103 °C.
As for `N=C(N)c1ccc(C(=O)Nc2cc(C(=O)NCCC(=O)O)ccc2OCc2ccccc2)cc1`, the melting point was > 250 °C.
Then `Cc1nc2c(C(F)(F)F)cccc2c(-c2ccccc2)c1C(=O)c1ccccc1`, with 175 to 177 °C.
The molecule `Cc1c(-c2ccccc2)nn2c1-c1ccccc1CC2` registered a melting point of 122 to 124 °C.
With `CC(C)Nc1nc(Nc2cccc(NS(C)(=O)=O)c2)nc2[nH]cnc12`, the melting point was 161 to 165 °C.
In turn, `Cc1c(F)c(Oc2cccc(C(F)(F)F)c2)nc(-c2ccc(C(F)(F)F)cc2)c1F` yielded a melting point of 87 °C.
In turn, `Cc1[nH]c(-c2ccncc2)c(C)c1C(=O)C(F)(F)F` showed a melting point of 169 to 170 °C.
Turning to `CCN1CCC(O)(c2cc(F)cc(F)c2)C1` (single isomer, unassigned; (-)), the melting point lay in the range of 111 to 112 °C.
To `COc1cc2c(cc1OC)S(=O)(=O)CCC(C(=O)N1CCN(C(=O)c3cc(OC)c(OC)c(OC)c3)CC1)=C2` belongs 226 to 229 °C; to `CCN(CC)S(=O)(=O)c1ccc(C#CC(C)(O)C(F)(F)F)cc1` (stereo not drawn), 140 to 144 °C; to `O=C(Nc1ccc(N2CC3CCC3C2)nc1)c1cc2cc(C(F)(F)F)cnc2n1Cc1cccc(F)c1` (stereo not drawn), 172 to 174 °C.
For `CN(C)c1ccc(C(=O)OC2=C([C@H]3CC[C@H](c4ccc(Cl)cc4)CC3)C(=O)c3ccccc3C2=O)cc1`, the melting point was 117 to 121 °C.
Take `CCc1cccc(CC(=O)O)c1OCCn1cc(C(=O)NCc2ccc(C(F)(F)F)cc2)c(OC(C)C)n1`: the melting point fell in the range of 110 to 111 °C.
To `N#Cc1cccc2nc(N[C@@H]3CCc4ccccc43)ccc12` belongs 150 °C; to `c1cc(-c2ccncc2)c2sccc2c1`, 71 to 72 °C.
For the molecule `Nc1cccc(NC(=O)C(=O)N2CCC(Cc3ccccc3)CC2)c1`, the melting point was 103 to 105 °C.
In turn, `CC(C)(C)OC(=O)CC(O)c1ccc(Cl)nc1NC(=O)C(C)(C)C` (stereo not drawn) returned a melting point of 130 to 132 °C.
To `CC(C)COC(=O)N[C@H](CC(=O)O)Cc1ccccc1` belongs 95 to 97 °C; to `Cc1ccc(C)c(C(=O)NCC23CC4CC(CC(Cl)(C4)C2)C3)c1`, 155 °C.
Molecule `O=[N+]([O-])c1cc(C(F)(F)F)ccc1NC1CCCCC1` had a melting point of 80.1 °C.
To `Cc1cc(C)c2c(c1C)OCC2c1ccccc1` (stereo not drawn) belongs 72 to 73 °C; to `C1=CNc2ccccc2C=N1`, 165 to 167 °C.
Consider `CC1=CCC2(C)C(CCC3C4CCC(O)C4(C)CCC32)C1` (stereo not drawn), for which the melting point lay in the range of 128 to 130 °C.
To `CC(=O)NCCCC(=O)c1ccc(Cl)cc1CCC(=O)NCC(=O)O` belongs 88 to 89 °C.
Then `c1ccc(N=C2CCCc3ccccc32)cc1`, with 53 °C.
`O=C(NC1=NCCS1)c1c(C(F)(F)F)nc(-c2ccccc2)c(-c2ccccc2)c1O` showed a melting point of 280 °C.
In turn, `O=c1[nH]c2c(Cc3nnn[nH]3)c3ccccc3n2c2ccccc12` had a melting point of 262 to 265 °C.
Then `CCC1(C)COP(=O)(Cc2ccc([N+](=O)[O-])cc2)OC1` (stereo not drawn), with 184 to 185 °C.
For the molecule `CNC(=S)NCCCSc1ncc[nH]1`, the melting point was in the range of 139 to 141 °C.
In turn, `Cc1nc(-c2cccnc2)sc1-c1ccnc(Nc2cc(Cl)c(N3CCOCC3)c(Cl)c2)n1` came in with a melting point of 276 to 278 °C.
To `O=C(Nc1ccc(CN2CCNCC2)cc1)c1cc(=O)c2ccccc2o1` belongs 138 to 140 °C; to `Brc1ccc2noc(-c3ccccc3)c2c1`, 113 to 116 °C.
Then `CNc1nc(NC)nc(-c2ccc(-c3ccccc3)cc2)n1`, with 198 to 200 °C; and `COC(=O)N[C@@H](Cc1ccccc1)[C@H](O)CN1C[C@H]2CCCC[C@H]2C[C@H]1C(=O)NOC(C)(C)C`, with 194 to 195 °C.
As for `O=C(OCc1ccccc1)N1CCN(c2ccccc2)CC1`, the melting point lay in the range of 49 to 51 °C.
With `COc1ccc2c(c1)cc(/C=C/c1ccccc1Cl)n2CCC#N`, the melting point is 136 to 138 °C.
Then `Nc1nc2c(s1)C(=O)CCC2`, with 259 to 262 °C; and `CCn1c(=O)c(C(=O)NC)c(O)c2ccc(C)nc21`, with 150 to 154 °C.
Then `COc1cc(OC(C)(C)C(=O)O)c(C=CC(=O)c2ccc(C(=O)O)cc2)cc1-c1cccs1`, with 223 to 225 °C; and `Cc1ccc(S(=O)(=O)N(C)c2ccc(Cl)cc2N)cc1`, with 102 °C.
Then `CC(c1ccc(F)cc1)n1c(NC2CCN(CCc3ccccc3)CC2)nc2ccccc21` (stereo not drawn), with 162 °C.
`O=C1C(=Cc2ccc(O)c(CO)c2)Cc2ccccc21` returned a melting point of 194 to 195 °C.
`NCCc1ccc(-c2csc(N=C(N)N)n2)o1` came in with a melting point of 156 to 158 °C.
Then `CSc1nc(=O)cc(N)n1-c1ccc(C)cc1`, with 130 to 132 °C; and `CC(NC(=O)C(Cc1ccc(OCc2ccccc2)cc1)NC(=O)OC(C)(C)C)C(=O)NCC(=O)OCc1ccccc1` (stereo not drawn) (Boc-Tyr(Bn)-Ala-Gly-OBn; configuration not given here), with 145 to 147 °C; and `CC(C)(C)OC(=O)Nc1cc(N2CCC3(CC2)OCCO3)c(-c2ccccc2F)cc1N`, with 198 °C.
`Cc1nc2c(C(=O)NC(C)(C(N)=O)C(C)C)c(C(=O)O)ccc2n1Cc1ccccc1` (stereo not drawn) had a melting point of 145 to 150 °C.
In turn, `Oc1ccc(Nc2ncc3ncc(Cl)cc3n2)cc1` yielded a melting point of 232 to 234 °C.
To `CC1C(=O)c2cc([N+](=O)[O-])ccc2OC1(C)C` (stereo not drawn) belongs 78 °C.
To `CC(C)(C)OC(=O)Oc1ccc(C(=O)c2ccc(OC(=O)OC(C)(C)C)cc2)cc1` belongs 141 to 143 °C.
Then `COc1ccc(-c2cc(S(C)(=O)=O)nnc2-c2ccc(OC)cc2)cc1`, with 137 to 140 °C; and `CCOC(=O)c1c(N2CCN(c3ccccc3)CC2)c2ccc(C)nc2n(CC)c1=O`, with 110 to 112 °C.
As to `CC(=O)Nc1c(Cl)cnn(C)c1=O`, the melting point was 147 to 148 °C.
To `COC=C(C(=O)OC)c1ccccc1C=Cc1cscn1` belongs 117 °C; to `COCc1cccc(OCCc2cnc(S)[nH]c2=O)c1`, 117 to 119 °C.
Then `CC1CCC2(c3c[nH]cn3)Cc3ccccc3C12` (stereo not drawn), with 168 to 172 °C; and `O=C(O)COc1cc(F)c(F)cc1C(=O)NCc1ccc(Br)cc1F`, with 156 to 158 °C; and `O=C1N(c2ccc(Br)cc2)C(Cl)(Cl)C2CCCCC12Cl` (stereo not drawn), with 148 to 150 °C.
Then `CCC(=C(c1ccccc1)c1ccc(OCC(O)CO)cc1)C1CCCC1` (stereo not drawn), with 89 to 91 °C; and `Cc1ccc(C)n1-c1cc(F)cc(F)c1`, with 55 to 56 °C.
The molecule `CCc1c(Oc2c(Cl)cc(C(F)(F)F)cc2Cl)n[nH]c1C` returned a melting point of 215 to 218 °C.
Then `CCOC(=O)C1Cc2ccccc2N1C(=O)c1c(O)c2cc(OC)cc3c2n(c1=O)CCO3` (stereo not drawn), with 135 to 138 °C.
To `COC(=O)CCC(=O)Nc1ccc(C(=O)NNC(=O)OC(C)(C)C)cc1` belongs 111 to 113 °C; to `CCOc1ccc2c(c1)C(=O)OC2C(Cl)(Cl)Cl` (stereo not drawn), 112 to 114 °C.
